Laboratory results: patent US20250179126A1, “A NOVEL PEPTIDE FROM A PHOTOSYNTHETIC BACERIUM DIRECTLY TARGETS MITOCHONDRIA TO TRIGGER APOPTOSIS IN ADVANCED PROSTATE CANCER CELLS” (priority 2022, published 2025)

Key:
[1] = test system: normal prostate cells CRL11611; assay: MTT cell viability assay, normal prostate CRL11611 cells; type: cell-based, human; conditions: normal prostate CRL11611 (p53+, AR+), 24-72 hr, paclitaxel 1 nM
From the text: FIG. 4A-4D: Effect of peptides on prostate cancer cell lines with differences in p53 and AR expression status. […] Control (PBS)-treated cells were considered to have 100% viability. Mean±SE (N=3).
(§1) Cell lines and culture: Human cancer and noncancer (immortalized and nonimmortalized) cell lines were obtained from the American Type Culture Collection [prostate cancer (PC3, DU145 and LNCaP), normal prostate (CRL11611), breast cancer (MCF-7), ovarian cancer (SK-OV3 adenocarcinoma), lung cancer (A549)]. MDD2 breast cancer cells (p53 dominant-negative) were provided courtesy of Dr Andrei V. Gudkov, Roswell Park Cancer Institute. 20 All cell lines were cultured in MEM-E (Invitrogen) supplemented with 10% heat-inactivated fetal bovine serum (Atlanta Biological, Inc.), 100 units/mL penicillin, and 100 μg/mL streptomycin at 37° C. in 5% CO2.
Cytotoxicity assay: The MTT assay was performed as we previously described (Cha et al., Cancer Research 2020, 80: 1615-1623).

[2] = test system: LNCaP prostate cancer cells; assay: MTT cell viability assay, LNCaP prostate cancer cells; type: cell-based, human; conditions: LNCaP (p53 wild-type, AR+), 24-72 hr; paclitaxel 1 nM
Protocol: as §1

[3] = test system: DU145 prostate cancer cells; assay: MTT cell viability assay, DU145 prostate cancer cells; type: cell-based, human; conditions: DU145 (p53-mutant, AR−), 24-72 hr, paclitaxel 1 nM
From the text: Cell viability was detected by MTT assays, and the control (PBS-treated) cells were considered 100% viable. Mean±SE (N=3). *P<0.05, **P<0.01, ***P<0.001.
as §1

[4] = test system: PC3 prostate cancer cells; assay: MTT cell viability assay, PC3 prostate cancer cells; type: cell-based, human; conditions: PC3 (p53-null, AR−), 24-72 hr, paclitaxel 1 nM
Protocol: as §1

[5] = test system: LNCaP cells; assay: Annexin-V apoptosis assay by flow cytometry, LNCaP; type: cell-based, human; conditions: 48 hr, Ptxl 1 nM, p28 50 μM, aurA/aurB 0.5-50 μM
Protocol: (§2) FIG. 7A-7D: Determination of apoptotic cell death. Prostate cancer cell lines (7A: LNCaP, 7B: DU145 and 7C: PC3) and normal prostate CRL11611 cells (7D) were exposed to the indicated agents for 48 hr and stained using apoptosis assay kits according to the manufacturer's instructions. The samples were analyzed by flow cytometry. Mean±SE (N=3).
(§3) After 48 hr, annexin-V apoptosis assays (Thermo Fisher Scientific) were conducted to detect apoptotic cells. At least 10,000 cells in each case were analyzed by FACS (RRC, UIC).

[6] = test system: PC3 cells; assay: Annexin-V apoptosis assay by flow cytometry, PC3; type: cell-based, human; conditions: PC3, 48 hr; Ptxl 1 nM, p28 50 μM, aurA/aurB 0.5-50 μM
Protocol: as §2, §3

[7] = test system: DU145 cells; assay: Annexin-V apoptosis assay by flow cytometry, DU145; type: cell-based, human; conditions: DU145, 48 hr; Ptxl 1 nM, p28 50 μM, aurA/aurB 0.5-50 μM
Protocol: as §2, §3

[8] = test system: normal prostate CRL11611 cells; assay: Annexin-V apoptosis assay by flow cytometry, normal prostate CRL11611; type: cell-based, human; conditions: normal CRL11611, 48 hr; Ptxl 1 nM, p28 50 μM, aurA/aurB 0.5-50 μM
Protocol: as §2, §3

[9] = test system: PC3 xenograft tumors; assay: PC3 xenograft animal model; type: in vivo, athymic mice; conditions: end of treatment, four weeks i.p.; aurB 5 mg/kg daily, Ptxl 10 mg/kg once a week
From the text: FIG. 10A-10D: Inhibition of PC3 xenograft tumor growth. 10A, When the s.c. tumors reached ˜5 mm, athymic mice were randomized into control (PBS) and i.p. treatment groups. Mean±SE (N=5). *P<0.01. […] 10C, At the end of treatment, tumors were dissected and weighed. * P<0.01. 10D, In sections of tumors from the control group, there was a marked increase in Ki-67-positive proliferating cells (stained brown and counterstained with haematoxylin, ×40), and only a few apoptotic cells were observed, as determined by TUNEL and caspase-3 (Casp-3) staining. There was an apparent sharp reduction in Ki-67-positive proliferating cells and a higher number of TUNEL-positive apoptotic cells in the aurB-treated group compared to the control group. Similarly, Casp-3 expression in aurB-treated tumors was increased markedly compared with that in untreated controls.
Xenograft animal model: Human prostate cancer cells (PC3) were injected s.c. into the right flanks of 5- to 6-week-old male athymic mice 78. When tumors reached 5 mm in diameter, animals were randomized into control and treatment groups. […] All animals were weighed twice a week. At necropsy, tumors were dissected and weighed. Statistical comparisons were performed by one-way analysis of variance (ANOVA) (control vs treatment). Tumor samples were fixed overnight in 10% buffered formalin. Fixation was followed by dehydration, clearing and infiltration. Samples were then embedded in paraffin, and 4 μm sections were cut on a microtome. Ki67 (LabVision) staining was performed on the tissue sections using a Vector Vectastain Elite ABC Kit. The TUNEL assay was performed on the sections using a Millipore Sigma ApopTag® Peroxidase In Situ Apoptosis Detection Kit.

Row | Compound | cytotoxic effect (MTT cell viability) [1] | cytotoxic effect (MTT cell viability) [2] | cytotoxic effect (MTT cell viability) [3] | cytotoxic effect (MTT cell viability) [4] | apoptotic cell death [5] | apoptotic cell death [6] | apoptotic cell death [7] | apoptotic cell death [8] | cytotoxic effect (MTT cell viability) ([1]; listed as Ptxl) | tumor growth inhibition vs PBS control [9] | cytotoxic effect (MTT cell viability) ([3]; listed as Ptxl) | cytotoxic effect (MTT cell viability) ([4]; listed as Ptxl)
1 | CSCC[C@H](NC(=O)CNC(=O)[C@H](CC(=O)O)NC(=O)[C@@H](NC(=O)[C@@H](NC(=O)[C@@H](NC(=O)CNC(=O)[C@H](CCC(N)=O)NC(=O)[C@H](CCSC)NC(=O)[C@H](CC(=O)O)NC(=O)[C@H](C)NC(=O)[C@H](C)NC(=O)[C@@H](NC(=O)[C@H](CO)NC(=O)[C@@H](N)CC(C)C)[C@@H](C)O)C(C)C)C(C)C)[C@@H](C)O)C(=O)N[C@@H](C)C(=O)N[C@@H](CO)C(=O)NCC(=O)N[C@@H](CC(C)C)C(=O)N[C@@H](CC(=O)O)C(=O)N[C@@H](CCCCN)C(=O)N[C@@H](CC(=O)O)C(=O)N[C@@H](Cc1ccc(O)cc1)C(=O)N[C@@H](CC(C)C)C(=O)N[C@@H](CCCCN)C(=O)N1CCC[C@H]1C(=O)N[C@@H](CC(=O)O)C(=O)N[C@@H](CC(=O)O)C(=O)O [p28, LST AAD MQG VVT DGM ASG LDK DYL KPDD, reference compound] | but not p53-null PC3 cells or normal CRL11611 cells | dose-dependent effect | dose-dependent effect | but not p53-null PC3 cells | – | – | – | – | – | – | – | –
2 | CC(=O)O[C@H]1C(=O)[C@@]2(C)[C@H]([C@H](OC(=O)c3ccccc3)[C@]3(O)C[C@H](OC(=O)[C@H](O)[C@@H](NC(=O)c4ccccc4)c4ccccc4)C(C)=C1C3(C)C)[C@]1(OC(C)=O)CO[C@@H]1C[C@@H]2O [paclitaxel, reference compound] | significantly induced time-dependent cytotoxicity | significantly induced time-dependent cytotoxicity | significantly induced time-dependent cytotoxicity | significantly induced time-dependent cytotoxicity | induced apoptotic cell death | induced apoptotic cell death | induced apoptotic cell death | induced apoptotic cell death | most toxic | 52% | less susceptible | less susceptible
